Experimental data taken from publication PMC11359702, “Synthesis and Biochemical Evaluation of Ethanoanthracenes and Related Compounds: Antiproliferative and Pro-Apoptotic Effects in Chronic Lymphocytic Leukemia (CLL)” (Pharmaceuticals, 2024).
Where two headings read alike, the source gives them in different places.

Experiments:
PGA-1 cells = experiment: alamarBlue cell viability assay; settings: for IC50: read-out: PGA-1 IC50
[1] = tested on: HG-3 and PGA-1 cell lines; experiment: alamarBlue cell viability assay, mean of both CLL cell lines; type: cell-based, human; settings: mean of HG-3 and PGA-1
leukemia cell panel = experiment: NCI-60 five-dose assay, leukemia cell panel mean; type: cell-based, human; settings: mean across the six leukemia cell lines
K-562 = experiment: NCI-60 five-dose assay; type: cell-based, human
melanoma cell lines = experiment: NCI-60 five-dose assay, melanoma cell lines; type: cell-based, human; settings: range over melanoma cell lines
Procedure: (§1) A number of our most promising compounds identified through preliminary cell viability testing (23c, 23d, 23f, 23h, 23l, 23m, 23n, 23o, 24f, 24l, 25n and 26n) were selected for NCI drug screening in the 60-cell-line panel. The panel includes nine subcategories based on cancer tissue types, which include leukemia, ovarian, central nervous system, breast, lung, prostate, skin, renal and colon cancer. The compounds were initially assessed in a one-dose assay at a fixed treatment concentration of 10 µM. The compounds selected for further investigation were progressed to a five-dose assay across the concentration ranges of 0.01, 0.1, 1, 10 and 100 µM [72]. The endpoints assessed in the screening protocol were GI50, TGI and LC50 [72].

COLO205 = experiment: NCI-60 five-dose assay; type: cell-based, human
Procedure: as §1

HOP-62 = experiment: NCI-60 five-dose assay; type: cell-based, human
Procedure: as §1

UO-31 = experiment: NCI-60 five-dose assay; type: cell-based, human
Procedure: as §1

SK-MEL-28 = experiment: NCI-60 five-dose assay; type: cell-based, human
Procedure: as §1

HCT-2998 = experiment: NCI-60 five-dose assay; type: cell-based, human
Procedure: as §1

SK-MEL-5 = experiment: NCI-60 five-dose assay; type: cell-based, human
Procedure: as §1

ACHN = experiment: NCI-60 five-dose assay; type: cell-based, human
Procedure: as §1

MDA-MB-435 = experiment: NCI-60 five-dose assay; type: cell-based, human
Procedure: as §1

MCF-7 = experiment: NCI-60 five-dose assay; type: cell-based, human
Procedure: as §1

LOX IMV1 = experiment: NCI-60 five-dose assay; type: cell-based, human
Procedure: as §1

NCI-H460 = experiment: NCI-60 five-dose assay; type: cell-based, human
Procedure: as §1

DU-145 = experiment: NCI-60 five-dose assay; type: cell-based, human
Procedure: as §1

HT29 = experiment: NCI-60 five-dose assay; type: cell-based, human; settings: HT29
Procedure: as §1

TK-10 = experiment: NCI-60 five-dose assay; type: cell-based, human
Procedure: as §1

OVCAR-4 = experiment: NCI-60 five-dose assay; type: cell-based, human
Procedure: as §1

NCI-H552 = experiment: NCI-60 five-dose assay; type: cell-based, human
Procedure: as §1

SNB-19 = experiment: NCI-60 five-dose assay; type: cell-based, human
Procedure: as §1

NCI/ADR-RES = experiment: NCI-60 five-dose assay; type: cell-based, human
Procedure: as §1

IGROV1 = experiment: NCI-60 five-dose assay; type: cell-based, human
Procedure: as §1

HCT-116 = experiment: NCI-60 five-dose assay; type: cell-based, human
Procedure: as §1

RXF 393 = experiment: NCI-60 five-dose assay; type: cell-based, human
Procedure: as §1

UACC-257 = experiment: NCI-60 five-dose assay; type: cell-based, human
Procedure: as §1

SK-MEL-2 = experiment: NCI-60 five-dose assay; type: cell-based, human
Procedure: as §1

MDA-MB-468 = experiment: NCI-60 five-dose assay; type: cell-based, human
Procedure: as §1

CAKI-1 = experiment: NCI-60 five-dose assay; type: cell-based, human
Procedure: as §1

SW-620 = experiment: NCI-60 five-dose assay; type: cell-based, human
Procedure: as §1

HS 578T = experiment: NCI-60 five-dose assay; type: cell-based, human
Procedure: as §1

HOP-92 = experiment: NCI-60 five-dose assay; type: cell-based, human
Procedure: as §1

MDA-MB-231/ATCC = experiment: NCI-60 five-dose assay; type: cell-based, human
Procedure: as §1

EKVX = experiment: NCI-60 five-dose assay; type: cell-based, human
Procedure: as §1

NCI-H332M = experiment: NCI-60 five-dose assay; type: cell-based, human
Procedure: as §1

786-0 = experiment: NCI-60 five-dose assay; type: cell-based, human
Procedure: as §1

U251 = experiment: NCI-60 five-dose assay; type: cell-based, human
Procedure: as §1

SN12C = experiment: NCI-60 five-dose assay; type: cell-based, human
Procedure: as §1

BT-549 = experiment: NCI-60 five-dose assay; type: cell-based, human
Procedure: as §1

A498 = experiment: NCI-60 five-dose assay; type: cell-based, human
Procedure: as §1

SF539 = experiment: NCI-60 five-dose assay; type: cell-based, human
Procedure: as §1

OVCAR-8 = experiment: NCI-60 five-dose assay; type: cell-based, human
Procedure: as §1

UACC-62 = experiment: NCI-60 five-dose assay; type: cell-based, human
Procedure: as §1

SK-OV-3 = experiment: NCI-60 five-dose assay; type: cell-based, human
Procedure: as §1

PC-3 = experiment: NCI-60 five-dose assay; type: cell-based, human
Procedure: as §1

MALME-3M = experiment: NCI-60 five-dose assay; type: cell-based, human
Procedure: as §1

RPMI-8226 = experiment: NCI-60 five-dose assay; type: cell-based, human

Which results are given for `O=C(/C=C/C12c3ccccc3C(c3ccccc31)C1C(=O)NC(=O)C12)c1ccc(Cl)cc1` (racemic) [Compound 23l, (E)-9-(3-(4-Chlorophenyl)-3-oxoprop-1-en-1-yl)-9,10-dihydro-9,10-[3,4]epipyrroloanthracene-12,14-dione]?
IC50 (PGA-1 cells; PGA-1, 24 h): 3210 nM; IC50 [1]: 2720 nM; GI50 (leukemia cell panel): 1770 nM; GI50 (K-562; K-562): 1990 nM; GI50 (melanoma cell lines): 1400 to 1810 nM; GI50 (COLO205): 1910 nM; GI50 (HOP-62): 1690 nM; GI50 (UO-31): 1280 nM; GI50 (SK-MEL-28): 1800 nM; GI50 (HCT-2998): 1690 nM; GI50 (SK-MEL-5): 1700 nM; GI50 (ACHN): 1650 nM; GI50 (MDA-MB-435): 1680 nM; GI50 (MCF-7): 1340 nM; GI50 (LOX IMV1): 1600 nM; GI50 (NCI-H460): 1800 nM; GI50 (DU-145): 1670 nM; GI50 (HT29): 2270 nM; GI50 (TK-10): 1920 nM; GI50 (OVCAR-4): 1420 nM; GI50 (NCI-H552): 1460 nM; GI50 (SNB-19): 1580 nM; GI50 (NCI/ADR-RES): 1770 nM; GI50 (IGROV1): 1670 nM; GI50 (HCT-116): 1230 nM; GI50 (RXF 393): 1200 nM; GI50 (UACC-257): 1560 nM; GI50 (SK-MEL-2): 1810 nM; GI50 (MDA-MB-468): 1700 nM; GI50 (CAKI-1): 1240 nM; GI50 (SW-620): 1890 nM; GI50 (HS 578T): 1940 nM; GI50 (HOP-92): 1320 nM; GI50 (MDA-MB-231/ATCC): 1880 nM; GI50 (EKVX): 1430 nM; GI50 (NCI-H332M): 1420 nM; GI50 (786-0): 1730 nM; GI50 (U251): 1520 nM; GI50 (SN12C): 1560 nM; GI50 (BT-549): 1340 nM; GI50 (A498): 1280 nM; GI50 (SF539): 1510 nM; GI50 (OVCAR-8): 1130 nM; GI50 (UACC-62): 1400 nM; GI50 (SK-OV-3): 1850 nM; GI50 (PC-3): 1390 nM; GI50 (MALME-3M; MALME-3M): 1510 nM; GI50 (RPMI-8226; RPMI-8226): 1660 nM

Which IC50 (PGA-1 cells; Homo sapiens, 24 h) does the source give for `O=C(/C=C/C12c3ccccc3C(c3ccccc31)C1C(=O)NC(=O)C12)c1ccc(F)cc1` (racemic) [Compound 23h] here?
Its IC50 is 2880 nM.

What about the viability at 10 µM (PGA-1 cells; Homo sapiens, 24 h, read-out: cell viability) of the same molecule?
Its viability at 10 µM is 9%.

What about the IC50 ([1]; Homo sapiens, CLL cell) of the same molecule?
The IC50 was 3770 nM.

What about the GI50 (leukemia cell panel; Homo sapiens) of the same molecule?
Its GI50 is 1000 nM.

What about the GI50 (K-562; Homo sapiens, K562, K-562) of the same molecule?
The GI50 was 1420 nM.

What about the GI50 (K-562; K-562) of the same molecule?
Its GI50 is 1550 nM.

And the GI50 (melanoma cell lines; Homo sapiens)?
Its GI50 is 1600 to 2480 nM.

And the GI50 (COLO205; Homo sapiens, COLO 205)?
The GI50 was 1790 nM.

And the GI50 (HOP-62; Homo sapiens)?
The GI50 was 2450 nM.

What about the GI50 (UO-31; Homo sapiens) of the same molecule?
Its GI50 is 1120 nM.

What about the GI50 (SK-MEL-28; Homo sapiens) of the same molecule?
Its GI50 is 1980 nM.

What about the GI50 (HCT-2998; Homo sapiens) of the same molecule?
Its GI50 is 1700 nM.

And the GI50 (SK-MEL-5; Homo sapiens)?
The GI50 was 1950 nM.

What about the GI50 (ACHN; Homo sapiens) of the same molecule?
The GI50 was 1390 nM.

What about the GI50 (MDA-MB-435; Homo sapiens) of the same molecule?
The GI50 was 1930 nM.

And the GI50 (MCF-7; Homo sapiens, MCF7)?
The GI50 was 885 nM.

What about the GI50 (LOX IMV1; Homo sapiens) of the same molecule?
Its GI50 is 1650 nM.

And the GI50 (NCI-H460; Homo sapiens)?
Its GI50 is 1640 nM.

And the GI50 (DU-145; Homo sapiens)?
Its GI50 is 1770 nM.

What about the GI50 (HT29; Homo sapiens, HT-29) of the same molecule?
The GI50 was 1860 nM.

And the GI50 (TK-10; Homo sapiens)?
Its GI50 is 3180 nM.

And the GI50 (OVCAR-4; Homo sapiens)?
The GI50 was 1960 nM.

What about the GI50 (NCI-H552; Homo sapiens) of the same molecule?
The GI50 was 1740 nM.

And the GI50 (SNB-19; Homo sapiens)?
The GI50 was 2680 nM.

And the GI50 (NCI/ADR-RES; Homo sapiens)?
The GI50 was 2160 nM.

And the GI50 (IGROV1; Homo sapiens, IGROV-1)?
Its GI50 is 2100 nM.

And the GI50 (HCT-116; Homo sapiens)?
Its GI50 is 537 nM.

What about the GI50 (RXF 393; Homo sapiens) of the same molecule?
The GI50 was 1270 nM.

What about the GI50 (UACC-257; Homo sapiens) of the same molecule?
The GI50 was 2130 nM.

What about the GI50 (SK-MEL-2; Homo sapiens) of the same molecule?
Its GI50 is 2480 nM.

And the GI50 (MDA-MB-468; Homo sapiens)?
The GI50 was 1880 nM.

And the GI50 (CAKI-1; Homo sapiens)?
The GI50 was 1020 nM.

And the GI50 (SW-620; Homo sapiens)?
Its GI50 is 2270 nM.

And the GI50 (HS 578T; Homo sapiens)?
Its GI50 is 1820 nM.

And the GI50 (HOP-92; Homo sapiens)?
Its GI50 is 1330 nM.

What about the GI50 (MDA-MB-231/ATCC; Homo sapiens) of the same molecule?
Its GI50 is 1640 nM.

And the GI50 (EKVX; Homo sapiens)?
The GI50 was 1850 nM.

What about the GI50 (NCI-H332M; Homo sapiens) of the same molecule?
The GI50 was 2640 nM.

What about the GI50 (786-0; Homo sapiens) of the same molecule?
The GI50 was 2440 nM.

What about the GI50 (U251; Homo sapiens, U-251) of the same molecule?
The GI50 was 1840 nM.

What about the GI50 (SN12C; Homo sapiens) of the same molecule?
Its GI50 is 2340 nM.

What about the GI50 (BT-549; Homo sapiens) of the same molecule?
The GI50 was 1370 nM.

What about the GI50 (A498; Homo sapiens) of the same molecule?
The GI50 was 1160 nM.

And the GI50 (SF539; Homo sapiens, SF-539)?
Its GI50 is 1690 nM.

And the GI50 (OVCAR-8; Homo sapiens)?
The GI50 was 1430 nM.

What about the GI50 (UACC-62; Homo sapiens) of the same molecule?
The GI50 was 1660 nM.

And the GI50 (SK-OV-3; Homo sapiens)?
Its GI50 is 5280 nM.

And the GI50 (PC-3; Homo sapiens)?
Its GI50 is 1420 nM.

And the GI50 (MALME-3M; Homo sapiens, Malme-3M)?
Its GI50 is 1600 nM.

And the GI50 (RPMI-8226; Homo sapiens, RPMI-8226, RPMI-8226)?
Its GI50 is 1620 nM.

And the GI50 (RPMI-8226; RPMI-8226)?
The GI50 was 1160 nM.
